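All cell lines were grown in 96-well plates and treated with compound for 48 hours. Abbreviation: GI50, concentration required for 50% inhibition of growth.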 The source made the active and inactive calls. No stated cut-off is given here; in the data, active = GI50 up to about 1.1 µM and inactive = higher.
Experiments:
Experiment in all cases: NCI tumour cell line growth inhibition, 48 h
DMS-273 = system: DMS-273
KM-20L2 = system: KM-20L2
HOP-18 = system: HOP-18
M19-MEL = system: M19-MEL
LXFL 529 = system: LXFL 529
DLD-1 = system: DLD-1
XF498 = system: XF498
BT-549 = system: BT-549
RXF 631 = system: RXF 631

Measured: GI50

CCOC(=O)C1=C(C)N2CCOC2(C)C(C(=O)OC)C1c1cccc(Cl)c1 (stereo not drawn)
inactive: DMS-273 > 100 µM | KM-20L2 > 100 µM | HOP-18 > 100 µM | M19-MEL > 100 µM | LXFL 529 > 100 µM | DLD-1 > 100 µM

Cc1ccc(S(=O)(=O)OC(c2ccc(Cl)cc2Cl)C2OC(=O)c3ccccc32)cc1 (stereo not drawn)
inactive: DMS-273 75.5 µM | KM-20L2 32.7 µM | XF498 > 100 µM | M19-MEL > 100 µM | LXFL 529 > 100 µM

O=C1CCC(c2ccccc2)=NN1c1nc2ccccc2s1
inactive: DMS-273 40.2 µM | HOP-18 18.8 µM | BT-549 27.6 µM | XF498 31.9 µM | M19-MEL 28.3 µM | LXFL 529 41.8 µM | DLD-1 34.1 µM

CCOc1ccc(C2c3[nH]c4ccccc4c3CCN2C(=O)c2cccs2)cc1 (stereo not drawn)
inactive: BT-549 61.9 µM

CCCn1c(SCC)c2ccccc2c1-c1nc(F)nc(F)n1
inactive: DMS-273 > 100 µM | KM-20L2 > 100 µM | XF498 > 100 µM | M19-MEL > 100 µM | LXFL 529 > 100 µM | RXF 631 > 100 µM

COc1c(Cl)ccc(Cl)c1-c1nnc(-c2c(Cl)c(Cl)c(Cl)c(Cl)c2-c2nc3cc(C(=O)c4ccccc4)ccc3[nH]2)o1
inactive: BT-549 76.7 µM

CC(=O)OCC(=O)[C@@]12OC(C)(C)O[C@@H]1C[C@H]1[C@@H]3CC(C=O)=C4C=C(OCCCl)CC[C@]4(C)[C@@]3(F)[C@@H](O)C[C@@]12C [FORMOCORTAL]
inactive: DMS-273 19.9 µM | KM-20L2 11.8 µM | HOP-18 18.5 µM | XF498 15.1 µM | M19-MEL 22.3 µM | DLD-1 23 µM

Cc1ccc(C2SCC(=O)N2c2ccc(-n3c(-c4ccccc4)nc4ccccc4c3=O)cc2)cc1 (stereo not drawn)
inactive: BT-549 20.2 µM

S=C(Nc1ccc2c(c1)oc1ccccc12)c1cccnc1
inactive: BT-549 37.1 µM

CCN1C(=O)N(C)C(O)c2c1nc1ccccn1c2=O (stereo not drawn)
inactive: DMS-273 19.5 µM | KM-20L2 25.5 µM | HOP-18 22.3 µM | XF498 26.2 µM | M19-MEL 28.4 µM | LXFL 529 29 µM | DLD-1 31.4 µM

CCOC(=O)C1NCCc2c1[nH]c1ccccc21 (stereo not drawn)
inactive: BT-549 > 10 µM

C[n+]1cc2cc(O)c(O)cc2c2ccc3cc(O)c(O)cc3c21.c1ccncc1
inactive: BT-549 2.26 µM

CC(C)(C)c1ccc(-c2nnc(SCc3ccc(Cl)cc3)n2-c2cccc(C(F)(F)F)c2)cc1
inactive: BT-549 > 93.3 µM

C=CCC1=CC2(OC)C(=O)C(OC)(OC)C1C1C(OC)(OC)C(=O)C(OC)=CC12CC=C (stereo not drawn)
inactive: BT-549 49.9 µM

c1ccc(SCCP(CCP(c2ccccc2)c2ccccc2)c2ccccc2)cc1 (stereo not drawn)
inactive: DMS-273 1.73 µM | HOP-18 2.16 µM | BT-549 6.81 µM | XF498 2.47 µM | M19-MEL 10.7 µM | LXFL 529 3.33 µM | DLD-1 22 µM

Nc1nnc2oc3ccc4ccccc4c3cc1-2
inactive: BT-549 33.8 µM

CCOC(=O)C1=C(C)NC(=S)NC1c1cccc(O)c1 (stereo not drawn) [MONASTROL]
inactive: BT-549 56.6 µM

CCOC(=O)c1cc2cc(CSc3ccccc3)ccc2oc1=O
inactive: BT-549 > 100 µM

O=C1CC(c2c(-c3ccccc3)[nH]c3ccccc23)C(=O)N1c1ccccc1 (stereo not drawn)
inactive: DMS-273 > 100 µM | KM-20L2 95.1 µM | XF498 > 100 µM | M19-MEL > 100 µM | LXFL 529 57.1 µM | RXF 631 56.8 µM | DLD-1 70.5 µM

Cc1nc2c(C)c3c([nH]c4ccc(Cl)cc43)c(C)c2c(O)c1C
inactive: DMS-273 9.02 µM | HOP-18 33.8 µM | BT-549 14.9 µM | XF498 43.2 µM | M19-MEL 6.18 µM | DLD-1 14.2 µM

CC1(C)CN=C(Nc2ccc(F)c(Cl)c2)S1
inactive: BT-549 > 100 µM

COC1C=CC(C(=O)[N+]2=Cc3[nH]c4ccccc4c3CC2)O1 (stereo not drawn)
inactive: DMS-273 82.2 µM | KM-20L2 > 100 µM | HOP-18 > 100 µM | M19-MEL > 100 µM | LXFL 529 98.2 µM | RXF 631 > 100 µM | DLD-1 > 100 µM

COC(=O)/C=C\S/C(=C(/c1ccccc1)n1ccc(C(=O)OC)n1)c1ccccc1
inactive: BT-549 > 100 µM

Cc1cc(Br)ccc1/N=N/c1c(C)nn(-c2ccccc2)c1-c1ccccc1
inactive: DMS-273 34.3 µM | HOP-18 > 100 µM | XF498 > 100 µM | M19-MEL > 100 µM | LXFL 529 45.8 µM | DLD-1 30.9 µM
